Measured values published in patent US8021831B2, “Taxane chemosensitivity prediction test” (Board of Regents, The University of Texas System, priority 2003, dated 2011).

Assays:
MCF-7 = assay: Paclitaxel cytotoxicity test (MTT assay); assay type: cell-based, human; conditions: 1, 5, 10, 50 or 100 nM paclitaxel, 72 hr
Description: (§1) FIG. 5. Sensitivities of cell lines to Paclitaxel were judged according to a graph analysis of the Paclitaxel cytotoxicity test. […] The Paclitaxel cytotoxicity test was performed as follows. The cells were cultivated in wells of a 96-well culture plate in presence of 1, 5, 10, 50 or 100 nM Paclitaxel. After 72 hr cultivation, cell survival was measured by the MTT assay.
(§2) Drug sensitivity assays. Cells were detached by trypsinization, seeded at 2.0×10^3 cells/well in a 96-well microtiter plate, and treated with various concentrations of paclitaxel (1, 5, 10, 50, 100 and 1000 nM). Seventy-two hr later, the effects on cell growth were examined by 3-(4,5-dimethylthiazol-2-yl)-2,5-diphenyl tetrazolium bromide (MTT) assay: 20 μl of MTT solution (5 mg/ml in phosphate-buffered saline; Sigma Aldrich) was added to each well, and the cells were incubated for 4 hr at 37° C. The MTT-formazan formed by metabolically viable cells was dissolved in 100 μl of cell lysis buffer, and […] was monitored using a microplate at a wavelength of 570 nm. The percentage of cell growth was calculated by defining the absorption of cells not treated with paclitaxel (control) as 100%.
(§3) Sensitivities of four human breast cancer cell lines to paclitaxel were judged according to a graph analysis of the paclitaxel cytotoxicity test (FIG. 5). […] The paclitaxel cytotoxicity test was performed as follows. The cells were cultivated in wells of a 96-well culture plate in presence of 1, 5, 10, 50 or 100 nM paclitaxel. After 72 hr cultivation, cell survival was measured by the MTT assay.

MDA-MB231 = assay: Paclitaxel cytotoxicity test (MTT assay); assay type: cell-based, human; conditions: 1, 5, 10, 50 or 100 nM paclitaxel, 72 hr
Description: as §1, §2, §3

MDA-MB435 = assay: Paclitaxel cytotoxicity test (MTT assay); assay type: cell-based, human; conditions: 1, 5, 10, 50 or 100 nM paclitaxel, 72 hr
Description: as §1, §2, §3

T47D = assay: Paclitaxel cytotoxicity test (MTT assay); assay type: cell-based, human; conditions: 1, 5, 10, 50 or 100 nM paclitaxel, 72 hr
Description: as §1, §2, §3

MCF-7 cells [1] = assay: Mitotic indices after paclitaxel treatment; assay type: cell-based, human; conditions: MCF-7 control (siRNA/control) cells; paclitaxel 100 nM; 24 hr after treatment
Description: FIG. 1C—Mitotic indices of each cell after treatment with paclitaxel. Twenty-four hr after transfection, cells were treated with paclitaxel (100 nM) and harvested at the indicated times.
Calculation of mitotic indices. Cells with mitotic condensed chromatin were visualized by staining with 10 μM Hoechst 33342 dye (Aventis Pharmaceuticals Inc., Bridgewater, N.J.) in conjunction with 10 μg/ml propidium iodide; the propidium iodide was incorporated into dead cells only. […] The cells were harvested at 12, 24, and 36 hr after transfection and the mitotic indices calculated.
(§8) To test the effects of suppression of Mad2, BubR1, or both on the spindle assembly checkpoint activated by paclitaxel, the mitotic indices were determined and the Cdk1 activity measured, both of which reflect the status of this checkpoint.

[2] = tested on: Cdk1 activity in MCF-7 cells; assay: Cdk1 kinase assay after paclitaxel treatment; assay type: cell-based, human; conditions: MCF-7 control cells; paclitaxel 100 nM; 24 hr after treatment
Description: Twenty-four hr after transfection, cells were treated with paclitaxel (100 nM) and harvested at the indicated times. FIG. 1D—Cyclin-dependent kinase-1 (Cdk1) activity after treatment with paclitaxel in each cell. Twenty-four hr after transfection, cells were treated with paclitaxel (100 nM) and harvested at the indicated times. Activity of Cdk1 in the lysates was determined as described in Experimental procedures.
Cdk1 kinase assay. The Cdk1 protein kinase assay was performed using the SignaTECT cdc2 protein assay system (Promega, Madison, Wis.). Briefly, the harvested cells were lysed with the extraction buffer (50 mM Tris [pH 7.4], 150 mM NaCl, 0.1% Triton X-100, and 1 mM EDTA) containing protease inhibitors (100 μg/ml aprotinin and 0.5 mM phenylmethane sulphonyl fluoride) and phosphatase inhibitors (50 mM NaF). These lysates were conjugated with a substrate consisting of cdc2-specific biotinylated peptide derived from histone H1 and [γ-^32P] ATP, and incubated at 30° C. for 10 min. […] After several washings, each captured membrane was placed into a separate vial and analyzed using a liquid scintillation counter (Beckman Coulter, Palo Alto, Calif.).
as §8

MCF-7 cells [3] = assay: Cell death analysis (trypan blue exclusion); assay type: cell-based, human; conditions: MCF-7 control cells, paclitaxel 100 nM, 48 hr
Description: FIG. 2B—MCF-7 cells transfected with siRNA/Mad2, BubR1, or both were examined for cell death induced by paclitaxel. Twenty-four hr after transfection, cells were treated with paclitaxel (100 nM) for 48 hr. Cell viability was assessed using trypan blue exclusion assay.
Cell death analysis. Cell death was evaluated using the trypan blue dye exclusion assay. Briefly, cells were harvested using trypsin and stained with 0.4% trypan blue dye (Sigma-Aldrich Chemical Co., St. Louis, Mo.). Trypan blue-positive and -negative cells were counted using a hemacytometer (Hausser Scientific, Horsham, Pa.) under a phase-contrast microscope (Fisher Scientific, Pittsburgh, Pa.). The results of each assay were expressed in terms of the percentage of dead cells relative to the total number of cells. Individual experiments were performed in triplicate.
Next, to determine whether these resistances were due to the reduction of cell death induced by paclitaxel, the inventors assessed the population of cell death using trypan blue exclusion.

[4] = tested on: susceptible tumor (tumor of MDA-MB231); assay: Tumor volume in tumor-bearing nude mice, susceptible tumor; assay type: in vivo; conditions: 20 mg paclitaxel per day i.p.
Description: (§4) FIG. 7. The susceptible and resistant cells (1×10^7 cells/mouse) were inoculated into nude mice. When the tumor volume reached more than 300 mm^3, 20 mg of Paclitaxel per day was intraperitoneally administered on five consecutive days (Days 34-38 after the inoculations). The tumor size was recorded on Days 20-43. […] By contrast, the volume of resistant tumor remained at 350 mm^3 until Day 43.
(§5) To further confirm the above in vitro results, an in vivo validation study was performed. The susceptible and resistant cells were inoculated into nude mice. When the tumor volume reached more than 300 mm^3, 20 mg of paclitaxel per day was intraperitoneally administered on five consecutive days (Days 34-38 after the inoculations). The tumor size was recorded on days 20-43. […] By contrast, volume of resistant tumors remained at 350 mm^3 until day 43.
as §4, with “The” for “FIG. 7. The”, “of paclitaxel” for “of Paclitaxel”, “on days” for “on Days”, “until day 43 (FIG. 7).” for “until Day 43.”

[5] = tested on: resistant tumor (tumor of T47D); assay: Tumor volume in tumor-bearing nude mice, resistant tumor; assay type: in vivo; conditions: 20 mg paclitaxel per day i.p., Days 34-38, until day 43
Description: as §4, §5
as §4, with “The” for “FIG. 7. The”, “of paclitaxel” for “of Paclitaxel”, “on days” for “on Days”, “until day 43 (FIG. 7).” for “until Day 43.”

[6] = tested on: CDK1 in tumor of MDA-MB231; assay: Cell cycle profiling of tumor tissue lysates, CDK1 specific activity; assay type: in vivo, nude mice; conditions: 24 hr after treatment
Description: (§6) FIG. 8. Lysates of the tumor tissues from tumor-bearing mice were subjected to cell cycle profiling. […] These are (A1) CDK1 specific activity 24 hr after treatment; (A2) CDK2 specific activity before treatment; (E5) MAD2 expression before treatment; (E3) Cyclin E expression before treatment; (E4) p21 expression before treatment; and (E1) CDK6 expression before treatment. The value plotted in the graph was calculated by dividing with the bigger raw value between two tumors on the each parameter.
(§7) Enzyme activity analyses of cell cycle profiling. Enzyme activity analyses of cell cycle profiling were performed using a non-radioisotopic method. Cell lysates were prepared as described for expression analysis. […] After three washes with washing buffer (0.1% NP-40, 50 mM Tris-Cl [pH 7.4]), 50 μl of the substrate mixture containing 10 μg of protein substrate, 5 mM adenosine 5′-O-(3-thiotriphosphate) (Sigma), 20 mM Tris-Cl (pH 7.4), and 0.1% Triton X-100 was added to the beads and incubated under continuous shaking at 37° C. for 10 min. Histone H1 (Upstate Biotechnology, Lake Placid, N.Y., USA) was used as the protein substrate for CDK1 and CDK2, and recombinant RB protein (amino acids 769-921) for CDK4 and CDK6. After the beads were removed, the introduced monothiophosphates in the substrate were further labeled by incubation with 10 mM iodoacetyl-biotin (Pierce) in coupling buffer (100 mM Tris-Cl [pH 8.5], 1 mM EDTA) for 90 min in the dark at room temperature. The reaction was quenched with β-mercaptoethanol, and 0.4 μg of the substrate was applied to the wells of the dot-blot device. The wells were blocked with 4% bovine serum albumin (BSA) for 30 min, then incubated with avidin-FITC (Vector) for 1 hr at 37° C.

CDK1 in tumor of T47D = assay: as above; assay type: in vivo, nude mice; conditions: 24 hr after treatment
Description: as §6, §7

[7] = tested on: advanced drug refractory ovarian cancer; conditions: advanced drug refractory ovarian cancer patients; cited from earlier work
[8] = tested on: previously treated metastatic breast cancer; conditions: previously treated metastatic breast cancer patients; cited from earlier work
various lung cancers = conditions: patients; cited from earlier work
microtubule site = conditions: higher than paclitaxel, same microtubule site; cited from earlier work

SMILES | Sensitivity of cell line to paclitaxel (judged by graph analysis of cytotoxicity test) (MCF-7) | Sensitivity of cell line to paclitaxel (judged by graph analysis of cytotoxicity test) (MDA-MB231) | Sensitivity of cell line to paclitaxel (judged by graph analysis of cytotoxicity test) (MDA-MB435) | Sensitivity of cell line to paclitaxel (judged by graph analysis of cytotoxicity test) (T47D) | control cells arrested at mitosis (MCF-7 cells [1]) | Cdk1 activity [2] | levels of cell death (MCF-7 cells [3]) | tumor volume before decrease (start value) ([4]; Days 34-38) [mm^3] | tumor volume after decrease (end value) ([4]; Days 34-38, recorded to day 43) [mm^3] | tumor volume remained at [5] [mm^3] | CDK1 specific activity (A1), divided by the bigger raw value [6] | CDK1 specific activity (A1), raw value [6] | CDK1 specific activity (A1), divided by the bigger raw value (CDK1 in tumor of T47D) | CDK1 specific activity (A1), raw value (CDK1 in tumor of T47D) | Response rate [7] | Response rate [8] | Response rate (various lung cancers) | affinity for the microtubule site relative to paclitaxel (microtubule site) [fold]
CC(=O)O[C@H]1C(=O)[C@@]2(C)[C@H]([C@H](OC(=O)c3ccccc3)[C@]3(O)C[C@H](OC(=O)[C@H](O)[C@@H](NC(=O)c4ccccc4)c4ccccc4)C(C)=C1C3(C)C)[C@]1(OC(C)=O)CO[C@@H]1C[C@@H]2O [paclitaxel] | resistant | susceptible | susceptible | resistant | at least 80% | dramatic increase | high | 460 | 120 | 350 | 1.0 | 3.0 mU/ng of CDK1 | 0.067 | 0.2 mU/ng of CDK1 | 19-36% | 27-62% | 21-37% | –
CC(=O)O[C@@]12CO[C@@H]1C[C@H](O)[C@@]1(C)C(=O)[C@H](O)C3=C(C)[C@@H](OC(=O)[C@H](O)[C@@H](NC(=O)OC(C)(C)C)c4ccccc4)C[C@@](O)([C@@H](OC(=O)c4ccccc4)[C@H]21)C3(C)C [docetaxel, (2R,3S)-N-carboxy-3-phenylisoserine, N-tert-butyl ester, 13-ester with 5b-20-epoxy-12a,4,7b,10b,13a-hexahydroxytax-11-en-9-one 4-acetate 2-benzoate, trihydrate] | – | – | – | – | – | – | – | – | – | – | – | – | – | – | – | – | – | 1.9
